Measured values taken from paper PMC10794188, “Structure-based development of 3,5-dihydroxybenzoyl-hydrazineylidene as tyrosinase inhibitor; in vitro and in silico study” (Scientific Reports, 2024).
Like-named read-outs stand apart in the source and are kept apart here.

Experiments:
mushroom tyrosinase = settings: cited from earlier work
tyrosinase [1] = assay: Tyrosinase inhibitory assay (colorimetric, L-DOPA substrate); format: biochemical; settings: for IC50: read-out: IC50 (µM) ± RSD
Procedure: The tyrosinase inhibitory activities of derivatives were performed according to the previously reported procedures[26],[27]. All the test samples were first dissolved in DMSO at dilution to the required final concentrations. Initially, in a 96-well microplate, 10 µl of test samples were added to 160 µl of phosphate buffer (pH = 6.8), and then 10 µl tyrosinase was added. After the mixture was pre-incubated at 28 °C for 20 min, 20 µl of L-DOPA solution was added. DMSO without test compounds was used as the control, and kojic acid was used as a positive control. After 8 min incubation absorbance of samples was measured at 490 nm. Each assay was conducted as three separate replicates.

tyrosinase [2] = assay: Enzyme kinetic study (Lineweaver–Burk, L-DOPA); format: biochemical
Text: The Lineweaver–Burk reciprocal plot was provided by plotting 1/V against 1/[S] at variable concentrations of the L-DOPA.

skin melanoma cells = test system: skin melanoma cells; design: method as in PMID 34140181; settings: 8 µM; cited from earlier work

O=C(/C=C/c1ccc(O)cc1)c1cc(O)cc(O)c1 [A]
IC50 (mushroom tyrosinase): 8.1 µM

O=C(Cn1cc(COc2ccc(C=NNC(=O)c3cc(O)cc(O)c3)cc2)nn1)Nc1ccccc1 [Compound 11a, 2-(4-((4-((2-(3,5-dihydroxybenzoyl)hydrazineylidene)methyl)phenoxy)methyl)-1H-1,2,3-triazol-1-yl)-N-phenylacetamide]
% inhibition at 100 µM (tyrosinase [1]): 53.87 ± 1.53%
IC50 (tyrosinase [1]): 90.5 µM

O=C(Cn1cc(COc2ccc(C=NNC(=O)c3cc(O)cc(O)c3)cc2)nn1)Nc1ccccc1F [Compound 11b, 2-(4-((4-((2-(3,5-dihydroxybenzoyl)hydrazono)methyl)phenoxy)methyl)-1H-1,2,3-triazol-1-yl)-N-(2-fluorophenyl)acetamide]
% inhibition at 100 µM (tyrosinase [1]): 22.99 ± 1.20%

O=C(Cn1cc(COc2ccc(C=NNC(=O)c3cc(O)cc(O)c3)cc2)nn1)Nc1ccc(F)cc1 [Compound 11c, 2-(4-((4-((2-(3,5-dihydroxybenzoyl)hydrazono)methyl)phenoxy)methyl)-1H-1,2,3-triazol-1-yl)-N-(4-fluorophenyl)acetamide]
% inhibition at 100 µM (tyrosinase [1]): 32.28 ± 2.76%

O=C(Cn1cc(COc2ccc(C=NNC(=O)c3cc(O)cc(O)c3)cc2)nn1)Nc1ccc(Cl)cc1 [Compound 11d, N-(4-chlorophenyl)-2-(4-((4-((2-(3,5-dihydroxybenzoyl)hydrazineylidene)methyl)phenoxy)methyl)-1H-1,2,3-triazol-1-yl)Acetamide]
% inhibition at 100 µM (tyrosinase [1]): 22.82 ± 0.53%

O=C(Cn1cc(COc2ccc(C=NNC(=O)c3cc(O)cc(O)c3)cc2)nn1)Nc1ccc(Br)cc1 [Compound 11e, N-(4-bromophenyl)-2-(4-((4-((2-(3,5-dihydroxybenzoyl)hydrazono)methyl)phenoxy)methyl)-1H-1,2,3-triazol-1-yl)acetamide]
% inhibition at 100 µM (tyrosinase [1]): 14.13 ± 2.31%

O=C(Cn1cc(COc2ccc(C=NNC(=O)c3cc(O)cc(O)c3)cc2)nn1)Nc1ccc(Cl)cc1Cl [Compound 11f, N-(2,4-dichlorophenyl)-2-(4-((4-((2-(3,5-dihydroxybenzoyl)hydrazineylidene)methyl)phenoxy)methyl)-1H-1,2,3-triazol-1-yl)acetamide]
% inhibition at 100 µM (tyrosinase [1]): 19.54 ± 2.48%

O=C(Cn1cc(COc2ccc(C=NNC(=O)c3cc(O)cc(O)c3)cc2)nn1)Nc1c(Cl)cccc1Cl [Compound 11g, N-(2,6-dichlorophenyl)-2-(4-((4-((2-(3,5-dihydroxybenzoyl)hydrazineylidene)methyl)phenoxy)methyl)-1H-1,2,3-triazol-1-yl)Acetamide]
% inhibition at 100 µM (tyrosinase [1]): 27.87 ± 1.83%

O=C(Cn1cc(COc2ccc(C=NNC(=O)c3cc(O)cc(O)c3)cc2)nn1)Nc1ccc([N+](=O)[O-])cc1 [Compound 11h, 2-(4-((4-((2-(3,5-dihydroxybenzoyl)hydrazineylidene)methyl)phenoxy)methyl)-1H-1,2,3-triazol-1-yl)-N-(4-nitrophenyl)Acetamide]
% inhibition at 100 µM (tyrosinase [1]): 22.74 ± 2.86%

Cc1cc([N+](=O)[O-])ccc1NC(=O)Cn1cc(COc2ccc(C=NNC(=O)c3cc(O)cc(O)c3)cc2)nn1 [Compound 11i, 2-(4-((4-((2-(3,5-dihydroxybenzoyl)hydrazineylidene)methyl)phenoxy)methyl)-1H-1,2,3-triazol-1-yl)-N-(2-methyl-4-nitrophenyl)acetamide]
% inhibition at 100 µM (tyrosinase [1]): 15.05 ± 2.29%

Cc1ccc(NC(=O)Cn2cc(COc3ccc(C=NNC(=O)c4cc(O)cc(O)c4)cc3)nn2)cc1 [Compound 11j, 2-(4-((4-((2-(3,5-dihydroxybenzoyl)hydrazono)methyl)phenoxy)methyl)-1H-1,2,3-triazol-1-yl)-N-(p-tolyl)acetamide]
% inhibition at 100 µM (tyrosinase [1]): 15.22 ± 4.33%

Cc1cccc(C)c1NC(=O)Cn1cc(COc2ccc(C=NNC(=O)c3cc(O)cc(O)c3)cc2)nn1 [Compound 11k, 2-(4-((4-((2-(3,5-dihydroxybenzoyl)hydrazineylidene)methyl)phenoxy)methyl)-1H-1,2,3-triazol-1-yl)-N-(2,6-dimethylphenyl)Acetamide]
% inhibition at 100 µM (tyrosinase [1]): 38.59 ± 0.74%

CCc1ccc(NC(=O)Cn2cc(COc3ccc(C=NNC(=O)c4cc(O)cc(O)c4)cc3)nn2)cc1 [Compound 11l, 2-(4-((4-((2-(3,5-dihydroxybenzoyl)hydrazineylidene)methyl)phenoxy)methyl)-1H-1,2,3-triazol-1-yl)-N-(4-ethylphenyl)acetamide]
% inhibition at 100 µM (tyrosinase [1]): 55.52 ± 4.63%
IC50 (tyrosinase [1]): 87.5 µM

COc1ccc(NC(=O)Cn2cc(COc3ccc(C=NNC(=O)c4cc(O)cc(O)c4)cc3)nn2)cc1 [Compound 11m, 2-(4-((4-((2-(3,5-dihydroxybenzoyl)hydrazineylidene)methyl)phenoxy)methyl)-1H-1,2,3-triazol-1-yl)-N-(4-methoxyphenyl)acetamide]
% inhibition at 100 µM (tyrosinase [1]): 78.81 ± 7.35%
IC50 (tyrosinase [1]): 55.4 µM
mode of inhibition (tyrosinase [2]; Lineweaver–Burk plot): competitive
Ki (tyrosinase [2]; secondary plot of Km vs inhibitor concentration, L-DOPA, read-out: dissociation constant Ki): 52.8 µM

O=C(Cn1cc(COc2ccc(C=NNC(=O)c3cc(O)cc(O)c3)cc2)nn1)NCc1ccccc1 [Compound 11n, N-benzyl-2-(4-((4-((2-(3,5-dihydroxybenzoyl)hydrazineylidene)methyl)phenoxy)methyl)-1H-1,2,3-triazol-1-yl)acetamide]
% inhibition at 100 µM (tyrosinase [1]): 17.48 ± 1.79%

CCOc1cc(/C=N/NC(=O)c2ccc(O)c(OC)c2)ccc1O [Compound C]
IC50 (mushroom tyrosinase): 1.58 µM

O=C(N/N=C/c1ccc(Cl)cc1)c1ccc(O)cc1 [Compound E]
IC50 (mushroom tyrosinase): 7.57 ± 0.01 µM

Clc1ccc(Cn2cc(COc3ccc(-c4nc5ccccc5[nH]4)cc3)nn2)cc1Cl [Compound F]
IC50 (mushroom tyrosinase): 9.42 µM

O=C1NC(=O)C(=Cc2ccc(OCc3cn(Cc4ccccc4Cl)nn3)cc2)C(=O)N1 [Compound G]
IC50 (mushroom tyrosinase): 29.9 µM

NC(=S)N/N=C/c1ccc(OCc2cn(CC(=O)NCc3ccccc3)nn2)cc1 [Compound H]
IC50 (mushroom tyrosinase; L-DOPA as substrate): 0.17 µM
IC50 (mushroom tyrosinase; L-tyrosine as substrate): 0.11 µM
melanin content (skin melanoma cells): 39.8%

CC(=O)c1cccc(NC(=O)COC(=O)/C=C/c2ccc(O)cc2O)c1 [D]
IC50 (mushroom tyrosinase): 0.002 µM

O=c1cc(CO)occ1O [Kojic acid, reference compound]
% inhibition at 100 µM (tyrosinase [1]): 23.64 ± 2.56%
